Laboratory results: patent US8192761B2, “Granular preparation containing biguanide compound” (Dainippon Sumitomo Pharma Co., Ltd., priority 2005, dated 2012)

Assay: Stability testing: appearance (solidification) of fine granules after storage in tightly sealed glass containers
Format: physicochemical
Settings: additive added to metformin hydrochloride fine granules, 40° C.
Protocol: Using fine granules obtained in Examples 1-14 and Comparative Examples 1-16, a stability testing was performed. Fine granules (5 g) were each placed in glass containers, which were tightly sealed and stored at 40° C. for 1 week.
Appearance of metformin hydrochloride fine granules after storage at 40° C. for 1 week

For `O=C([O-])[O-].[Ca+2]` [calcium carbonate], which solidification-preventive effect is on record?
Its solidification-preventive effect is “did not show a solidification-preventive effect”.

With `OC[C@H]1O[C@@H](O[C@H]2[C@H](O)[C@@H](O)C(O)O[C@@H]2CO)[C@H](O)[C@@H](O)[C@H]1O` (stereo partly drawn) [lactose] as the compound, how does the solidification-preventive effect read?
Its solidification-preventive effect is “did not show a solidification-preventive effect”.

With calcium stearate as the compound, how does the solidification-preventive effect read?
Its solidification-preventive effect is “did not show a solidification-preventive effect”.

Which solidification-preventive effect does the source give for magnesium stearate here?
The solidification-preventive effect was “a solidification-preventive effect was observed”.

With `O=P([O-])([O-])O.[Ca+2]` [anhydrous dibasic calcium phosphate] as the compound, how does the solidification-preventive effect read?
Its solidification-preventive effect is “did not show a solidification-preventive effect”.

With `[Ca+2].[Cl-].[Cl-]` [calcium chloride] as the compound, how does the solidification-preventive effect read?
Its solidification-preventive effect is “a solidification-preventive effect was observed”.
